Test results as given in EP0739978A2, “Hydantoinase from agrobacterium tumefaciens and its use for the preparation of optically pure N-carbamyl-D-amino acids from racemic hydantoins” (W.R. Grace & Co.-Conn., priority 1995, dated 1996).

Assays:
[1] = test system: A. tumefaciens ATCC 55632 hydantoinase; assay: Substrate specificity; type: biochemical; conditions: for Relative Activity (%): substrate 5 mg/ml in 50 mM Tris-HCl pH 9.0, 40°C, 10 minutes, DL-5-Methylhydantoin = 100; for % Relative Activity with: ATCC 55632: Table 6 values rescaled to 5,6-Dihydrouracil = 100
Protocol: A. Temperature/activity relationship. Hydantoinase activity was measured using a modification of the colorimetric procedure for detecting N-carbamyl amino acids with p-dimethylaminobenzaldehyde (PDMB) as described by Cecere, et al. (FEBS Letters, 57:192 (1975)). Reaction mixtures (total vol. of 0.4 ml in microfuge tubes) contained 75 µmol of DL-5-methylhydantoin (unless designated otherwise) in 50 mM Tris-HCl buffer (pH 9.0) and a suitable amount of hydantoinase extract. Hydantoinase extracts were added to reaction mixtures which had been pre-equilibrated at 40°C, and after 10 minutes incubation at this temperature, reactions were terminated by the addition of 100 µl of 10% (weight/volume) trichloroacetic acid, followed by 100 µl of 10% (weight/volume) PDMB in 6 N HCl. The solutions were mixed, diluted with 0.6 ml of water and centrifuged at 10,000 rpm for 5 minutes. The absorbencies of the supernatant fractions were determined at 440 nm with a Shimadzu Model 160 spectrophotometer. One unit of activity is defined as the amount of enzyme required to form 1 µmol of N-carbamyl amino acid under these conditions. Protein was determined by the BCA assay as per the manufacturer's instructions. (Pierce Chemical Co., Rockford, IL). Specific activity is expressed as units per mg protein. For the determination of the effect of temperature on hydantoinase activity, hydantoinase extracts of A. tumefaciens were added to reaction mixtures pre-equilibrated at various temperatures and activities were determined by the aforementioned assay. Controls (minus enzyme) were run for each temperature and the values obtained were subtracted from the test sample.
Referring to Table 5, the hydantoinase of the present invention differs from previously described hydantoinases in its combination of high temperature and pH optima, pH stability and lack of requirement or stimulation by metal ions. […] E. Substrate specificity. The substrate specificity of the A. tumefaciens ATCC 55632 hydantoinase was determined by adding hydantoinase extract to 0.4 ml of substrate solution (5 mg/ml 50 mM Tris-HCl buffer, pH 9.0) and incubating the reaction mixtures at 40°C in a water bath for 10 minutes in sealed tubes. The reactions were terminated and further processed as described previously. Controls (minus enzyme) were run for each substrate the values obtained were subtracted from the test sample.

hydantoinase [2] = target: hydantoinase (Pseudomonas putida, UniProt Q59699); conditions: Pseudomonas fluorescens DSM 84 hydantoinase; cited from earlier work
hydantoinase (Pseudomonas putida, UniProt Q59699), sequence (Q59699 whole entry): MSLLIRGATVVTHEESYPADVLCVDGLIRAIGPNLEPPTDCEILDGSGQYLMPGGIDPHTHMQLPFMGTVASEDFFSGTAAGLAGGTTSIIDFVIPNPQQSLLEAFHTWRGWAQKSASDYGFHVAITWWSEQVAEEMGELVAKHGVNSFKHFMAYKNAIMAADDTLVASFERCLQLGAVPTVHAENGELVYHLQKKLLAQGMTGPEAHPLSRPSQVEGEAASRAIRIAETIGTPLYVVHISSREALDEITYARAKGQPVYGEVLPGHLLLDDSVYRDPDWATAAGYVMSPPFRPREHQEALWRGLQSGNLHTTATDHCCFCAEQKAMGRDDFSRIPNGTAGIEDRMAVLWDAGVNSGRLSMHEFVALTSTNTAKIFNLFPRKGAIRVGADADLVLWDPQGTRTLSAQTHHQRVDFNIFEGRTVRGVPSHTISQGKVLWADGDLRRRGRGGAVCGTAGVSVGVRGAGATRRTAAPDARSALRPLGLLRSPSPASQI

hydantoinase [3] = conditions: Pseudomonas sp. AJ 11220 hydantoinase; cited from earlier work
hydantoinase [4] = conditions: Agrobacterium radiobacter hydantoinase; cited from earlier work
hydantoinase [5] = conditions: Agrobacterium IP I671 hydantoinase; cited from earlier work
[6] = test system: A. tumefaciens ATCC 55632; assay: Induction of hydantoinase activity, basal salts medium with yeast extract and glucose; type: cell-based; conditions: addition 2 mg/ml, cells harvested after 8 hours; no addition 0.06
Protocol: In particular it should be noted that the substrate specificity of hydantoinase from A. tumefaciens ATCC 55632 differs substantially from those described for other Agrobacterium species (5 and 6) due to its high relative activity with dihydrouracil and 5-methylhydantoin and its relatively low rate of hydrolysis with 5-benzylhydantoin F. Induction of hydantoinase activity. A. tumefaciens ATCC 55632 was grown in a medium containing basal salts medium, 1% yeast extract and 20 mM glucose. Various hydantoins or carbamyl amino acids were added to a concentration of 2 mg/ml to induce hydantoinase activity. Cells were harvested after 8 hours, hydantoinase extracts were prepared and hydantoinase activity was determined. […]

hydantoinase [7] = conditions: Arthrobacter crystallopoietes AM2 hydantoinase; cited from earlier work
hydantoinase [8] = conditions: P. striata hydantoinase; cited from earlier work
[9] = test system: A. tumefaciens ATCC 55632; assay: Induction of hydantoinase activity, complex medium (separate experiment); type: cell-based; conditions: for Specific Activity (Units/mg): inducer 1 gm/liter, complex medium, 24 hours at 30°C, no inducer 0.13
Protocol: 2,4-Thiouracil (2,4-dithiouracil) has been reported to induce hydantoinase activity in Agrobacterium IP I-671 by 40-fold [Meyer, et al., FEMS 109:71(1993)]. In a separate experiment, hydantoinase activities were determined following the growth of A. tumefaciens ATCC 55632 on a complex medium (750 ml) (see media preparation described in Example 1) containing the inducing compounds at 1 gm/liter. The culture media were inoculated with 24 hour seed culture of A. tumefaciens ATCC 55632 and incubated for 24 hours with shaking at 30°C. Hydantoinase extracts were prepared and the effect of 2,4-thiouracil on hydantoinase induction of A. tumefaciens is shown in Table 9.

Agrobacterium IP I-671 = conditions: cited from earlier work
[10] = test system: Hydantoinase extract of A. tumefaciens ATCC 55632; assay: Hydantoinase activation by metals; type: biochemical; conditions: 2 mM metal ion, dialyzed extract pre-incubated 30 minutes, assay at 40°C pH 9.0; control without addition 26.4
Protocol: Reaction mixtures (total vol. of 0.4 ml in microfuge tubes) contained 75 µmol of DL-5-methylhydantoin (unless designated otherwise) in 50 mM Tris-HCl buffer (pH 9.0) and a suitable amount of hydantoinase extract. Hydantoinase extracts were added to reaction mixtures which had been pre-equilibrated at 40°C, and after 10 minutes incubation at this temperature, reactions were terminated by the addition of 100 µl of 10% (weight/volume) trichloroacetic acid, followed by 100 µl of 10% (weight/volume) PDMB in 6 N HCl. The solutions were mixed, diluted with 0.6 ml of water and centrifuged at 10,000 rpm for 5 minutes. The absorbencies of the supernatant fractions were determined at 440 nm with a Shimadzu Model 160 spectrophotometer. One unit of activity is defined as the amount of enzyme required to form 1 µmol of N-carbamyl amino acid under these conditions. Protein was determined by the BCA assay as per the manufacturer's instructions. […] Specific activity is expressed as units per mg protein.
D. Hydantoinase activation by metals. […] Solutions (360 µl) containing either 2 mM Mg^++, Co^++ or Ni^++ in 50 mM Tris buffer, pH 9.0 were pre-incubated with dialyzed hydantoinase extract for 30 minutes at ambient temperature. The reaction mixtures were equilibrated in a 40°C water bath for 2 minutes. The hydantoinase assay was started immediately with the addition of 40 µl DL-5-methylhydantoin (100 mg/ml in 50 mM Tris-HCl buffer, pH 9.0).

For CCC(C)C1NC(=O)NC1=O (racemic) [DL-5-(sec)-Butylhydantoin], the “Relative Activity (%)” value [1] was 76%.

For O=C1NC(=O)C(Cc2ccccc2)N1 (racemic) [DL-5-Benzylhydantoin], the “% Relative Activity with: ATCC 55632” value [1] is listed as 15%, the “Relative Activity (%)” value [1] is listed as 19% and the “% Relative Activity with: 2” value (hydantoinase [2]) is listed as 2%. For the same compound, the “% Relative Activity with: 4” value (hydantoinase [3]) was 57%, the “% Relative Activity with: 5” value (hydantoinase [4]) was 32% and the “% Relative Activity with: 6” value (hydantoinase [5]) was 100%.

With O=C1NC(=O)C(CO)N1 (racemic) [DL-5-Hydroxymethylhydantoin] the “Relative Activity (%)” value [1] was 22%.

With CC(C)CC1NC(=O)NC1=O (racemic) [DL-5-Isobutylhydantoin] the “Relative Activity (%)” value [1] was 77%.

For CC(C)C1NC(=O)NC1=O (racemic) [DL-5-Isopropylhydantoin], the “Relative Activity (%)” value [1] was 73%.

In the case of CC1NC(=O)NC1=O (racemic) [DL-5-Methylhydantoin], the “% Relative Activity with: ATCC 55632” value [1] was 80%, the “Relative Activity (%)” value [1] was 100% and the “Specific Activity (U/mg)” value [6] was 1.65 U/mg. For the same compound, the “% Relative Activity with: 1” value (hydantoinase [7]) was 100%, the “% Relative Activity with: 3” value (hydantoinase [8]) was 45% and the “% Relative Activity with: 5” value (hydantoinase [4]) was 24%. The “% Relative Activity with: 6” value (hydantoinase [5]) was 37%.

For O=C1NC(=O)C(c2ccccc2)N1 (racemic) [DL-5-Phenylhydantoin], the “% Relative Activity with: ATCC 55632” value [1] is given as 68%, the “Relative Activity (%)” value [1] is given as 85% and the “% Relative Activity with: 1” value (hydantoinase [7]) is given as 37%. For the same compound, the “% Relative Activity with: 3” value (hydantoinase [8]) was 25%, the “% Relative Activity with: 4” value (hydantoinase [3]) was 34% and the “% Relative Activity with: 5” value (hydantoinase [4]) was 51%.

For CN1CC(=O)NC1=O [1-Methylhydantoin], the “Specific Activity (U/mg)” value [6] was 0.09 U/mg.

For S=c1cc[nH]c(=S)[nH]1 [2,4-Thiouracil], the “induction of hydantoinase activity (in words)” value ([9]; A. tumefaciens ATCC 55632) is given as “does not appear to induce hydantoinase activity”, the “Specific Activity (Units/mg)” value [9] is given as 0.15 Units/mg and the “induction of hydantoinase activity” value (Agrobacterium IP I-671; Meyer, et al., FEMS 109:71(1993)) is given as 40 fold.

In the case of CSCCC1NC(=O)NC1=O (centres unmarked) [5(2-methylthioethyl) hydantoin], the “% Relative Activity with: ATCC 55632” value [1] is listed as 65%, the “Relative Activity (%)” value [1] is listed as 81% and the “% Relative Activity with: 2” value (hydantoinase [2]) is listed as 41%. The “% Relative Activity with: 3” value (hydantoinase [8]) was 48%, the “% Relative Activity with: 4” value (hydantoinase [3]) was 100% and the “% Relative Activity with: 5” value (hydantoinase [4]) was 100%. For the same compound, the “% Relative Activity with: 6” value (hydantoinase [5]) was 55%.

With O=C1CCNC(=O)N1 [5,6-Dihydrouracil] the “% Relative Activity with: ATCC 55632” value [1] was 100%, the “Relative Activity (%)” value [1] was 125% and the “Specific Activity (U/mg)” value [6] was 0.22 U/mg. The “% Relative Activity with: 1” value (hydantoinase [7]) was 78%, the “% Relative Activity with: 2” value (hydantoinase [2]) was 100% and the “% Relative Activity with: 3” value (hydantoinase [8]) was 100%. For the same compound, the “% Relative Activity with: 4” value (hydantoinase [3]) was 9% and the “% Relative Activity with: 6” value (hydantoinase [5]) was 10%.

In the case of [Co+2] [Cobalt], the “Hydantoinase Activity (Units/ml)” value [10] was 27.9 Units/ml.

In the case of NC(=O)NCC(=O)O [Hydantoic acid], the “Specific Activity (U/mg)” value [6] was 1.34 U/mg.

For O=C1CNC(=O)N1 [Hydantoin], the “Specific Activity (U/mg)” value [6] was 1.44 U/mg, the “increase of hydantoinase activity” value ([9]; A. tumefaciens ATCC 55632, versus no inducer) was 10 fold and the “Specific Activity (Units/mg)” value [9] was 1.37 Units/mg. The “induction of hydantoinase activity (in words)” value (Agrobacterium IP I-671; FEMS 109:71, 1993) was “does not induce hydantoinase activity”.

For [Mg+2] [Magnesium], the “Hydantoinase Activity (Units/ml)” value [10] was 24.8 Units/ml.

For C[C@H](NC(N)=O)C(=O)O [N-carbamyl alanine], the “Specific Activity (U/mg)” value [6] was 0.44 U/mg.

With NC(=O)N[C@@H](Cc1ccccc1)C(=O)O [N-carbamylphenylalanine] the “Specific Activity (U/mg)” value [6] was 0.13 U/mg.

With [Ni+2] [Nickel] the “Hydantoinase Activity (Units/ml)” value [10] was 25.0 Units/ml.

In the case of Tryptophan hydantoin, the “Specific Activity (U/mg)” value [6] was 0.10 U/mg.
